Assay: Anti-oxidation experiment (DPPH free radical removing capability)
Assay type: biochemical
Method: The free radical removing capability was experimented using the embodiment 4 in Table 5. In case of the DPPH (1,1-diphenyl-2-picrylhydrazyl) used, the radical removing capability of radical sample which changes colors depending on the changes in oxidation/reduction environment was confirmed through the measurements of the O.D. value.
In details, the DPPH experiment sample was prepared by inputting the solution of the embodiment 4 in Table 5 into each well of the 96-well plate by 100 μl. The DPPH was added by 10 μl, and the mixture was placed at a room temperature for 30 minutes, and the absorbance at 517 nm was measured using a micro plate reader. At this time, the solution prepared by adding 10% of the distilled water instead of vitamin C into the solution of the embodiment 4 and the pure vitamin C were used as a control group.

**Q.** Which results are given for `O=C1O[C@H]([C@@H](O)CO)C(O)=C1O` [Control group 2 (vitamin C), L-ascorbic acid]?
**A.** effect on the activation of the anti-oxidation (in words): high effect on the activation of the anti-oxidation; Activation (%) of anti-oxidation (room temperature 30 minutes, absorbance at 517 nm): 90.8%
